Measurements from patent US20130203778A1, “PHARMACEUTICAL COMPOSITION COMPRISING A PYRIMIDINEONE DERIVATIVE” (Glenmark Pharmaceuticals S.A., priority 2010, published 2013).

Assays:
[1] = Solubility of Compound I with various hydrophilic carriers and in solid dispersion composition form at 25° C. (HPLC assay); type: physicochemical
Experimental: Buffers were prepared as per USP. Compound I (100 mg) equivalent was added to various buffers (100 ml) in presence of various hydrophilic carriers. The samples were sonicated for 15 minutes. A solid dispersion composition form of Compound I was also evaluated for solubility on similar lines. Quantification was done by assay method on HPLC by comparison with standard solution. The assay provided the relative amount of drug (mg/ml) in the sample solution. The results were extrapolated to represent the solubility in 900 ml of buffer solutions.
Preparation of Test solution: Compound I (100 mg) was added to various buffers (100 ml) in presence of various surfactants. The samples were sonicated for 15 minutes. Evaluation was done by assay method on HPLC by comparison with standard solution.
Mixture of 0.01M Ammonium Acetate Buffer and Acetonitrile in the ratio of 20:80% v/v.
Mixture of water and acetonitrile in the ratio of 20:80 v/v.
Column: Hypersil BDS C18, 150×4.6 mm, 5 μm
Column temperature: 25° C.

[2] = Qualitative solubility of Compound I in water and organic solvents; type: physicochemical
[3] = with Cetrimide, ratio (w/w) 1:10
[4] = with Cremophor EL, ratio (w/w) 1:10
[5] = with Gelucire 44/14, ratio (w/w) 1:10
[6] = with Hydroxypropyl beta-cyclodextrin, ratio (w/w) 1:10, BLD = Below limit of detection (0.01 ppm)
[7] = with Labrafil, ratio (w/w) 1:10
[8] = with Labrasol, ratio (w/w) 1:10
[9] = with Poloxamer 407, Compound I to carrier ratio (w/w) 1:1
[10] = with Sodium lauryl sulphate, ratio (w/w) 1:5, BLD = Below limit of detection (0.01 ppm)
[11] = with Tween 80, ratio (w/w) 1:10
[12] = with Tween 80, ratio (w/w) 1:30
[13] = with Vitamin E TPGS, ratio (w/w) 1:10
[14] = without hydrophilic carrier (1:0), BLD = Below limit of detection (0.01 ppm)

Solubility, Acetate Buffer pH 4.5 [1, 3]: 0.27 mg/900 ml
Solubility, Phosphate Buffer pH 6.8 [1, 3]: 0.45 mg/900 ml
Solubility, Simulated gastric fluid pH 1.2 [1, 3]: 0.54 mg/900 ml
Solubility, Acetate Buffer pH 4.5 [1, 4]: 2.61 mg/900 ml
Solubility, Phosphate Buffer pH 6.8 [1, 4]: 2.52 mg/900 ml
Solubility, Simulated gastric fluid pH 1.2 [1, 4]: 0.54 mg/900 ml
Solubility, Acetate Buffer pH 4.5 [1, 5]: 1.17 mg/900 ml
Solubility, Phosphate Buffer pH 6.8 [1, 5]: 0.99 mg/900 ml
Solubility, Simulated gastric fluid pH 1.2 [1, 5]: 0.09 mg/900 ml
Solubility, Acetate Buffer pH 4.5 ([1]; with HPMC, ratio (w/w) 1:5): 0.18 mg/900 ml
Solubility, Phosphate Buffer pH 6.8 ([1]; with HPMC, ratio (w/w) 1:5): 0.81 mg/900 ml
Solubility, Simulated gastric fluid pH 1.2 ([1]; with HPMC, ratio (w/w) 1:5): 0.72 mg/900 ml
Solubility, Acetate Buffer pH 4.5 [1, 6]: BLD
Solubility, Phosphate Buffer pH 6.8 [1, 6]: BLD
Solubility, Simulated gastric fluid pH 1.2 [1, 6]: BLD
Solubility, Acetate Buffer pH 4.5 [1, 7]: 0.27 mg/900 ml
Solubility, Phosphate Buffer pH 6.8 [1, 7]: 0.18 mg/900 ml
Solubility, Simulated gastric fluid pH 1.2 [1, 7]: 0.09 mg/900 ml
Solubility, Acetate Buffer pH 4.5 [1, 8]: 0.18 mg/900 ml
Solubility, Phosphate Buffer pH 6.8 [1, 8]: 0.72 mg/900 ml
Solubility, Simulated gastric fluid pH 1.2 [1, 8]: 0.36 mg/900 ml
Solubility, Acetate Buffer pH 4.5 [1, 9]: 0.18 mg/900 ml
Solubility, Phosphate Buffer pH 6.8 [1, 9]: 0.09 mg/900 ml
Solubility, Simulated gastric fluid pH 1.2 [1, 9]: 0.27 mg/900 ml
Solubility, Acetate Buffer pH 4.5 [1, 10]: BLD
Solubility, Phosphate Buffer pH 6.8 [1, 10]: BLD
Solubility, Simulated gastric fluid pH 1.2 [1, 10]: BLD
Solubility, Acetate Buffer pH 4.5 [1, 11]: 3.06 mg/900 ml
Solubility, Phosphate Buffer pH 6.8 [1, 11]: 3.69 mg/900 ml
Solubility, Simulated gastric fluid pH 1.2 [1, 11]: 0.45 mg/900 ml
Solubility, Acetate Buffer pH 4.5 [1, 12]: 8.82 mg/900 ml
Solubility, Phosphate Buffer pH 6.8 [1, 12]: 15.84 mg/900 ml
Solubility, Simulated gastric fluid pH 1.2 [1, 12]: 1.44 mg/900 ml
Solubility, Acetate Buffer pH 4.5 [1, 13]: 1.35 mg/900 ml
Solubility, Phosphate Buffer pH 6.8 [1, 13]: 1.80 mg/900 ml
Solubility, Simulated gastric fluid pH 1.2 [1, 13]: 0.63 mg/900 ml
Solubility, Acetate Buffer pH 4.5 [1, 14]: BLD
Solubility, Phosphate Buffer pH 6.8 [1, 14]: BLD
Solubility, Simulated gastric fluid pH 1.2 [1, 14]: BLD**
Solubility in acetone [2]: freely soluble
Solubility in chloroform [2]: freely soluble
Solubility in ethanol [2]: very slightly soluble
Solubility in methanol [2]: slightly soluble
Solubility in methylene dichloride [2]: freely soluble
Solubility in water ([2]; aqueous media having different pH ranging over 1.2 to 6.8): practically insoluble
SMILES: COc1cccc(/C=C/c2nc3sccn3c(=O)c2-c2ccc(OC(F)(F)F)cc2)c1OCC1CC1 [Compound I, 7-{(E)-2-[2-(cyclopropylmethoxy)-3-methoxyphenyl]vinyl}-6-(4-trifluoromethoxyphenyl)-5H-[1,3]thiazolo-[3,2-a]pyrimidin-5-one]
